“Also recorded” adds a separate entry of the source.
What was measured:
Format in all cases: cell-based, human
miR-130/301 family [1] = assay: RT-qPCR of miR-130/301 family members after transfection of oligonucleotide inhibitors (specificity), PAECs; conditions: normoxia and hypoxia
Text: (§1) FIGS. 14A-14C show the comparison of the specificity of miR-130/301 oligonucleotide inhibitors. (FIG. 14A) Overview of the miRNA silencing approach using seed-targeting tiny locked nucleic acid (LNA) molecules. Tiny LNAs were designed as fully LNA-modified oligonucleotides complementary to the seed region of the miR-130/301 family. The high binding affinity of tiny LNA enables functional inhibition of co-expressed members of miRNA seed families, which leads to de-repression of target mRNAs. Sequences shown in FIG. 14A are miR-130a (SEQ ID NO: 4), miR-130b (SEQ ID NO: 5), miR-301a (SEQ ID NO: 6), miR-301b (SEQ ID NO: 7) and tiny-LNA-130 ([…] SEQ ID NO: 3). […] In the setting of exposure to hypoxia (0.2% O2; 24 h) or normoxia (21% O2; 24 h), expression levels of miR-130/301 family members in PAECs (FIG. 14B) and PASMCs (FIG. 14C) were quantified after transfection with anti-miR-130a versus control (anti-miR-NC) (left panels) or tiny-LNA-130 versus control (tiny-LNA-NC) (right panels). […]
(§2) Cells were homogenized in 2 ml of QiaZol reagent (Qiagen). […] Total RNA concentration was determined using a ND-1000 micro-spectrophotometer (NanoDrop Technologies).
(§3) Mature miRNA expression was evaluated using TaqMan MicroRNA Assays (Life Technologies/Applied Biosystems) and the Applied Biosystems 7900HT Fast Real Time PCR device (Life Technologies/Applied Biosystems). […]

miR-130/301 family [2] = assay: RT-qPCR of miR-130/301 family members after transfection of oligonucleotide inhibitors (specificity), PASMCs; conditions: normoxia and hypoxia
Text: as §1, §2, §3

PAAFs = assay: ECM remodeling experiment (naïve PAAFs plated on remodeled ECM)
Protocol: After the different treatment cells were fixed with PBS/PFA 4% for 10 min and permeabilized with PBS/Triton 100×0.1% for 10 min. Then cells were incubated with anti-YAP1 (#4912; 1/100; Cell signaling) at 4° C. overnight. Secondary antibodies coupled with Alexa-594 (Life Technologies) were used at 1:500. Nuclei were counterstained with DAPI (Sigma).
Following treatment, PAAFs were plated atop soft matrices (see below) in normal growth medium supplemented with 0.5% FBS. After three days, 10 ug/mL of puromycin was added to the growth medium for 48 hours to detach the cells from the matrix. Matrices were washed 3 times (PBS). Naïve PAAFs were then plated on top of these matrices supplemented with normal growth medium 0.5% FBS or harvested for assessment of collagen crosslinking (Picrosirius Red stain). Sixteen hours later, cells were harvested for immunofluorescence experiments or RNA extraction.
Picrosirius Red stain was achieved through the use of 5 μm paraffin sections stained with 0.1% Picrosirius Red (Direct Red80, Sigma-Aldrich) and counterstained with Weigert's hematoxylin to reveal fibrillar collagen. The sections were then serially imaged using with an analyzer and polarizer oriented parallel and orthogonal to each other. Microscope conditions (lamp brightness, condenser opening, objective, zoom, exposure time, and gain parameters) were constant throughout the imaging of all samples. A minimal threshold was set on appropriate control sections for each experiment in which only the light passing through the orthogonally-oriented polarizers representing fibrous structures (i.e., excluding residual light from the black background) was included. The threshold was maintained for all images across all conditions within each experiment. The area of the transferred regions that was covered by the thresholded light was calculated and at least 10 sections/vessel per condition were averaged together (Image J software).

tiny-LNA-130: fully LNA-modified tiny LNA oligonucleotide 5′-ATTGCACT-3′ (SEQ ID NO: 3) complementary to the seed region of the miR-130/301 family (all LNA, backbone and methylation of C not given here)
expression of all miR-130/301 family members (miR-130/301 family [1]): down-regulated; also recorded: effective inhibitors of the entire miR-130/301 family | expression of all miR-130/301 family members (miR-130/301 family [2]): down-regulated; also recorded: effective inhibitors of the entire miR-130/301 family | collagen crosslinking of remodeled ECM (PAAFs; Picrosirius Red): reversed | collagen, LOX, CTGF, and POU5F1/OCT4 in naïve cells plated on remodeled ECM (PAAFs; RT-qPCR): down-regulated | miR-130/301 in naïve cells plated on remodeled ECM (PAAFs; RT-qPCR): down-regulated
